Assays:
Details in all cases: scale 0 to 100
barley, winter = assay: Test D postemergence; format: in vivo, Hordeum vulgare
Method in brief: (§1)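 Formulation was a non-phytotoxic solvent mixture plus surfactant, applied either to soil at planting (silt loam, preemergence) or to foliage of 2–18 cm plants (postemergence). Visual evaluation versus controls followed at 14–21 days, scored 0–100.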

barley, spring = assay: Test D postemergence; format: in vivo, Hordeum vulgare
Method in brief: as §1

wheat, spring = assay: Test D postemergence; format: in vivo, Triticum aestivum
Method in brief: as §1

wheat, winter = assay: Test D postemergence; format: in vivo, Triticum aestivum
Method in brief: as §1

bromegrass, downy = assay: Test D preemergence; format: in vivo, Bromus tectorum
Method in brief: as §1

lambsquarters = assay: Test D postemergence; format: in vivo, Chenopodium album
Method in brief: as §1

oat, wild = assay: Test D postemergence; format: in vivo, Avena fatua
Method in brief: as §1

oilseed rape = assay: Test D postemergence; format: in vivo, Brassica napus
Source text: Seeds of plant species selected from bluegrass (annual bluegrass, Poa annua), blackgrass (Alopecurus myosuroides), canarygrass (littleseed canarygrass, Phalaris minor), chickweed (common chickweed, Stellaria media), galium (catchweed bedstraw, Galium aparine), bromegrass, downy (downy bromegrass, Bromus tectorum), field poppy (Papaver rhoeas), field violet (Viola arvensis), foxtail, green (green foxtail, Setaria viridis), deadnettle (henbit deadnettle, Lamium amplexicaule), ryegrass, Italian (Italian ryegrass, Lolium multiflorum), kochia (Kochia scoparia), lambsquarters (Chenopodium album), oilseed rape (Brassica napus), pigweed (redroot pigweed, Amaranthus retroflexus), chamomile (scentless chamomile, Matricaria inodora), speedwell (bird's-eye speedwell, Veronica persica), barley, spring (spring barley, Hordeum vulgare), wheat, spring (spring wheat, Triticum aestivum), buckwheat, wild (wild buckwheat, Polygonum convolvulus), mustard, wild (wild mustard, Sinapis arvensis), oat, wild (wild oat, Avena fatua), radish, wild (wild radish, Raphanus raphanistrum), windgrass (Apera spica-venti), Russian thistle (Salsola kali), barley, winter (winter barley, Hordeum vulgare), and wheat, winter (winter wheat, Triticum aestivum) were planted into a silt loam soil and treated preemergence with test chemicals formulated in a non-phytotoxic solvent mixture which included a surfactant.
At the same time, these species were planted in pots containing Redi-Earth® planting medium (Scotts Company, 14111 Scottslawn Road, Marysville, Ohio 43041) comprising spaghnum peat moss, vermiculite, wetting agent and starter nutrients and treated with postemergence applications of the test chemicals formulated in the same manner. Plants ranged in height from 2 to 18 cm (1- to 4-leaf stage). Treated plants and controls were maintained in a controlled growth environment for 14 to 21 days after which time all species were compared to controls and visually evaluated. Plant response ratings, summarized in Table D, are based on a scale of 0 to 100 where 0 is no effect and 100 is complete control. A dash (-) response means no test result.

Row | SMILES | Barley, Winter plant response rating (barley, winter; Postemergence, 31 g ai/ha) | Barley, Winter plant response rating (barley, winter; Postemergence, 125 g ai/ha) | Barley, Winter plant response rating (barley, winter; Postemergence, 250 g ai/ha) | Barley, Winter plant response rating (barley, winter; postemergence, 62 g ai/ha) | Barley, Spring plant response rating (barley, spring; Postemergence, 31 g ai/ha) | Barley, Spring plant response rating (barley, spring; Postemergence, 125 g ai/ha) | Barley, Spring plant response rating (barley, spring; Postemergence, 250 g ai/ha) | Barley, Spring plant response rating (barley, spring; postemergence, 62 g ai/ha) | Wheat, Spring plant response rating (wheat, spring; Postemergence, 31 g ai/ha) | Wheat, Spring plant response rating (wheat, spring; Postemergence, 125 g ai/ha) | Wheat, Spring plant response rating (wheat, spring; Postemergence, 250 g ai/ha) | Wheat, Spring plant response rating (wheat, spring; postemergence, 62 g ai/ha) | Wheat, Winter plant response rating (wheat, winter; Postemergence, 31 g ai/ha) | Wheat, Winter plant response rating (wheat, winter; Postemergence, 125 g ai/ha) | Wheat, Winter plant response rating (wheat, winter; Postemergence, 250 g ai/ha) | Wheat, Winter plant response rating (wheat, winter; postemergence, 62 g ai/ha) | Plant response rating, Bromegrass, Downy (bromegrass, downy; 31 g ai/ha) | Plant response rating, Bromegrass, Downy (bromegrass, downy; 62 g ai/ha) | Plant response rating, Bromegrass, Downy (bromegrass, downy; 125 g ai/ha) | Plant response rating, Bromegrass, Downy (bromegrass, downy; 250 g ai/ha) | other results
1 | CCCc1cc(C(=O)NCC(F)(F)F)nn1Cc1cc(C(F)(F)F)nn1C [Compound 138] | 15 | 20 | 40 | 15 | 15 | 25 | 40 | 15 | 15 | 15 | 25 | 15 | 15 | 20 | 35 | 15 | 10 | 15 | 20 | 65 | Lambsquarters plant response rating (lambsquarters; Postemergence, 31 g ai/ha): 80; Lambsquarters plant response rating (lambsquarters; Postemergence, 125 g ai/ha): 80; Lambsquarters plant response rating (lambsquarters; Postemergence, 250 g ai/ha): 80; Lambsquarters plant response rating (lambsquarters; postemergence, 62 g ai/ha): 80; Oat, Wild plant response rating (oat, wild; Postemergence, 31 g ai/ha): 20; Oat, Wild plant response rating (oat, wild; Postemergence, 125 g ai/ha): 25; Oat, Wild plant response rating (oat, wild; Postemergence, 250 g ai/ha): 60; Oat, Wild plant response rating (oat, wild; postemergence, 62 g ai/ha): 20; Oilseed Rape plant response rating (oilseed rape; Postemergence, 31 g ai/ha): 60; Oilseed Rape plant response rating (oilseed rape; Postemergence, 125 g ai/ha): 90; Oilseed Rape plant response rating (oilseed rape; Postemergence, 250 g ai/ha): 100; Oilseed Rape plant response rating (oilseed rape; postemergence, 62 g ai/ha): 60
2 | CCOc1cc(C(=O)NC2CC2)nn1Cc1ccnc(C(F)(F)F)c1 [Compound 189] | 15 | 20 | 20 | 15 | 10 | 15 | 25 | 10 | 0 | 5 | 25 | 0 | 20 | 25 | 50 | 20 | 0 | 15 | 20 | 55 | Lambsquarters plant response rating (lambsquarters; Postemergence, 31 g ai/ha): 75; Lambsquarters plant response rating (lambsquarters; Postemergence, 125 g ai/ha): 80; Lambsquarters plant response rating (lambsquarters; Postemergence, 250 g ai/ha): 90; Lambsquarters plant response rating (lambsquarters; postemergence, 62 g ai/ha): 75; Oat, Wild plant response rating (oat, wild; Postemergence, 31 g ai/ha): 20; Oat, Wild plant response rating (oat, wild; Postemergence, 125 g ai/ha): 30; Oat, Wild plant response rating (oat, wild; Postemergence, 250 g ai/ha): 35; Oat, Wild plant response rating (oat, wild; postemergence, 62 g ai/ha): 20; Oilseed Rape plant response rating (oilseed rape; Postemergence, 31 g ai/ha): 40; Oilseed Rape plant response rating (oilseed rape; Postemergence, 125 g ai/ha): 55; Oilseed Rape plant response rating (oilseed rape; Postemergence, 250 g ai/ha): 60; Oilseed Rape plant response rating (oilseed rape; postemergence, 62 g ai/ha): 40

Reference: patent US20150105252A1, “SUBSTITUTED PYRAZOLES AS HERBICIDES” (E I DU PONT DE NEMOURS AND COMPANY, priority 2013, published 2015)
